Results as given in ChEMBL document CHEMBL1275492, “In vitro activity of ceftobiprole against pathogens from two phase 3 clinical trials of complicated skin and skin structure infections” (2008).
In brackets after ≈: the same amount, converted by molar mass.

Experiments:
Assay type in all cases: functional
Proteus vulgaris = assay: Antibacterial activity against Proteus vulgaris obtained from complicated skin and skin structure infections by agar dilution method
Klebsiella pneumoniae = assay: Antibacterial activity against Klebsiella pneumoniae obtained from complicated skin and skin structure infections by agar dilution method
Acinetobacter baumannii = assay: Antibacterial activity against Acinetobacter baumannii obtained from complicated skin and skin structure infections by agar dilution method
Citrobacter freundii = assay: Antibacterial activity against Citrobacter freundii obtained from complicated skin and skin structure infections by agar dilution method
Escherichia coli = assay: Antibacterial activity against Escherichia coli obtained from complicated skin and skin structure infections by agar dilution method
Proteus penneri = assay: Antibacterial activity against Proteus penneri obtained from complicated skin and skin structure infections by agar dilution method
Serratia marcescens = assay: Antibacterial activity against Serratia marcescens obtained from complicated skin and skin structure infections by agar dilution method
Pseudomonas aeruginosa = assay: Antibacterial activity against Pseudomonas aeruginosa obtained from complicated skin and skin structure infections by agar dilution method
[1] = system: Stenotrophomonas maltophilia; assay: Antibacterial activity against Stenotrophomonas maltophilia obtained from complicated skin and skin structure infections by agar dilution method
Salmonella = assay: Antibacterial activity against Salmonella spp. obtained from complicated skin and skin structure infections by agar dilution method
Providencia stuartii = assay: Antibacterial activity against Providencia stuartii obtained from complicated skin and skin structure infections by agar dilution method
Morganella morganii = assay: Antibacterial activity against Morganella morganii obtained from complicated skin and skin structure infections by agar dilution method
Klebsiella oxytoca = assay: Antibacterial activity against Klebsiella oxytoca obtained from complicated skin and skin structure infections by agar dilution method
Citrobacter braakii = assay: Antibacterial activity against Citrobacter braakii obtained from complicated skin and skin structure infections by agar dilution method
Proteus mirabilis = assay: Antibacterial activity against Proteus mirabilis obtained from complicated skin and skin structure infections by agar dilution method
Pseudomonas fluorescens = assay: Antibacterial activity against Pseudomonas fluorescens obtained from complicated skin and skin structure infections by agar dilution method
Enterobacter amnigenus = assay: Antibacterial activity against Enterobacter amnigenus obtained from complicated skin and skin structure infections by agar dilution method; conditions: Lelliottia amnigena
Klebsiella aerogenes = assay: Antibacterial activity against Enterobacter aerogenes obtained from complicated skin and skin structure infections by agar dilution method
Enterobacter cloacae = assay: Antibacterial activity against Enterobacter cloacae obtained from complicated skin and skin structure infections by agar dilution method

`CO/N=C(\C(=O)N[C@@H]1C(=O)N2C(C(=O)[O-])=C(C[N+]3(C)CCCC3)CS[C@H]12)c1csc(N)n1` gave an MIC50 (Proteus vulgaris) of 0.06 µg/mL (≈ 0.125 µM), an MIC90 (Proteus vulgaris) of 4 µg/mL (≈ 8.32 µM) and an MIC50 (Klebsiella pneumoniae) of at most 0.12 µg/mL. For the same compound, the MIC90 (Klebsiella pneumoniae) was 1 µg/mL (≈ 2.08 µM), the MIC50 (Acinetobacter baumannii) was over 16 µg/mL and the MIC90 (Acinetobacter baumannii) was 32 µg/mL (≈ 66.6 µM). For the same compound, the MIC50 (Citrobacter freundii) was 0.06 µg/mL (≈ 0.125 µM), the MIC90 (Citrobacter freundii) was 4 µg/mL (≈ 8.32 µM) and the MIC50 (Escherichia coli) was 0.03 µg/mL (≈ 0.0624 µM). For the same compound, the MIC90 (Escherichia coli) was 0.12 µg/mL (≈ 0.25 µM), the MIC50 (Proteus penneri) was 0.06 µg/mL (≈ 0.125 µM) and the MIC90 (Proteus penneri) was 4 µg/mL (≈ 8.32 µM). The MIC50 (Serratia marcescens) was 0.06 µg/mL (≈ 0.125 µM), the MIC90 (Serratia marcescens) was 4 µg/mL (≈ 8.32 µM) and the MIC50 (Pseudomonas aeruginosa) was 4 µg/mL (≈ 8.32 µM). For the same compound, the MIC90 (Pseudomonas aeruginosa) was 64 µg/mL (≈ 133 µM), the MIC50 [1] was over 16 µg/mL and the MIC90 [1] was 32 µg/mL (≈ 66.6 µM). The MIC50 (Salmonella) was 0.06 µg/mL (≈ 0.125 µM), the MIC90 (Salmonella) was 4 µg/mL (≈ 8.32 µM) and the MIC50 (Providencia stuartii) was 0.06 µg/mL (≈ 0.125 µM). The MIC90 (Providencia stuartii) was 4 µg/mL (≈ 8.32 µM), the MIC50 (Morganella morganii) was 0.03 µg/mL (≈ 0.0624 µM) and the MIC90 (Morganella morganii) was over 64 µg/mL. The MIC50 (Klebsiella oxytoca) was 0.06 µg/mL (≈ 0.125 µM), the MIC90 (Klebsiella oxytoca) was 4 µg/mL (≈ 8.32 µM) and the MIC50 (Citrobacter braakii) was 0.06 µg/mL (≈ 0.125 µM). It also gave an MIC90 (Citrobacter braakii) of 4 µg/mL (≈ 8.32 µM), an MIC50 (Proteus mirabilis) of 0.06 µg/mL (≈ 0.125 µM) and an MIC90 (Proteus mirabilis) of 1 µg/mL (≈ 2.08 µM). For the same compound, the MIC50 (Pseudomonas fluorescens) was over 16 µg/mL, the MIC90 (Pseudomonas fluorescens) was 32 µg/mL (≈ 66.6 µM) and the MIC50 (Enterobacter amnigenus) was 0.06 µg/mL (≈ 0.125 µM). It also gave an MIC90 (Enterobacter amnigenus) of 4 µg/mL (≈ 8.32 µM), an MIC50 (Klebsiella aerogenes) of 0.06 µg/mL (≈ 0.125 µM) and an MIC90 (Klebsiella aerogenes) of 4 µg/mL (≈ 8.32 µM).
With `C[C@@H](O)[C@H]1C(=O)N2C(C(=O)O)=C(S[C@@H]3CN[C@H](C(=O)N(C)C)C3)[C@H](C)[C@H]12` [MEROPENEM] the MIC50 (Proteus vulgaris) was 0.03 µg/mL (≈ 0.0782 µM), the MIC90 (Proteus vulgaris) was at most 0.12 µg/mL and the MIC50 (Klebsiella pneumoniae) was 0.03 µg/mL (≈ 0.0782 µM). The MIC90 (Klebsiella pneumoniae) was at most 0.12 µg/mL, the MIC50 (Acinetobacter baumannii) was 2 µg/mL (≈ 5.22 µM) and the MIC90 (Acinetobacter baumannii) was over 32 µg/mL. For the same compound, the MIC50 (Citrobacter freundii) was 0.03 µg/mL (≈ 0.0782 µM), the MIC90 (Citrobacter freundii) was at most 0.12 µg/mL and the MIC (Escherichia coli) was 0.015 µg/mL (≈ 0.0391 µM). For the same compound, the MIC50 (Escherichia coli) was 0.015 µg/mL (≈ 0.0391 µM), the MIC90 (Escherichia coli) was at most 0.12 µg/mL and the MIC50 (Proteus penneri) was 0.03 µg/mL (≈ 0.0782 µM). It also gave an MIC90 (Proteus penneri) of at most 0.12 µg/mL, an MIC50 (Serratia marcescens) of 0.03 µg/mL (≈ 0.0782 µM) and an MIC90 (Serratia marcescens) of at most 0.12 µg/mL. The MIC50 (Pseudomonas aeruginosa) was 4 µg/mL (≈ 10.4 µM), the MIC90 (Pseudomonas aeruginosa) was 8 µg/mL (≈ 20.9 µM) and the MIC50 [1] was 2 µg/mL (≈ 5.22 µM). The MIC90 [1] was over 32 µg/mL, the MIC50 (Salmonella) was 0.03 µg/mL (≈ 0.0782 µM) and the MIC90 (Salmonella) was at most 0.12 µg/mL. The MIC50 (Providencia stuartii) was 0.03 µg/mL (≈ 0.0782 µM), the MIC90 (Providencia stuartii) was at most 0.12 µg/mL and the MIC50 (Morganella morganii) was at most 0.12 µg/mL. For the same compound, the MIC90 (Morganella morganii) was 0.12 µg/mL (≈ 0.313 µM), the MIC50 (Enterobacter cloacae) was 0.03 µg/mL (≈ 0.0782 µM) and the MIC90 (Enterobacter cloacae) was at most 0.12 µg/mL. For the same compound, the MIC50 (Klebsiella oxytoca) was 0.03 µg/mL (≈ 0.0782 µM), the MIC90 (Klebsiella oxytoca) was at most 0.12 µg/mL and the MIC50 (Citrobacter braakii) was 0.03 µg/mL (≈ 0.0782 µM). The MIC90 (Citrobacter braakii) was at most 0.12 µg/mL, the MIC50 (Proteus mirabilis) was 0.06 µg/mL (≈ 0.156 µM) and the MIC90 (Proteus mirabilis) was at most 0.12 µg/mL. It also gave an MIC50 (Pseudomonas fluorescens) of 2 µg/mL (≈ 5.22 µM), an MIC90 (Pseudomonas fluorescens) of over 32 µg/mL and an MIC50 (Enterobacter amnigenus) of 0.03 µg/mL (≈ 0.0782 µM). For the same compound, the MIC90 (Enterobacter amnigenus) was at most 0.12 µg/mL, the MIC50 (Klebsiella aerogenes) was 0.03 µg/mL (≈ 0.0782 µM) and the MIC90 (Klebsiella aerogenes) was at most 0.12 µg/mL.
